This test concerns PfGSTF58. Description: absorbance at […] nm, Michaelis-Menten fit. The settings on record: GSH co-substrate; 30 °C. Type of test: biochemical, Polypogon fugax.

A word on the Km: it is the substrate concentration at which the rate is half of its maximum.

Take `O=[N+]([O-])c1ccc(Cl)c([N+](=O)[O-])c1` [1-chloro-2,4-dinitrobenzene]: the Km worked out at 450 ± 90 µM.

The values are drawn from publication PMC11672750, “PfGSTF2 endows resistance to quizalofop‐p‐ethyl in Polypogon fugax by GSH conjugation” (Plant Biotechnology Journal, 2024).
